This note sets out measurements from US20250084058A1, “PHENYLPYRAZOLE COMPOUND AND APPLICATION THEREOF” (priority 2022, published 2025).

Assay type in all cases: in vivo
For one assay, the system named is Ctenocephalides felis. Briefly: Insecticidal test on Ctenocephalides felis (compound film in culture dish). Particulars: 1 μg/cm^2; adult Ctenocephalides felis; after 72 h; 25° C.; read-out: insect mortality (Ctenocephalides felis). How it is done:
4 mg of compounds to be tested were dissolved in 40 mL of acetone to obtain acetone solutions with a concentration of 100 mg/L. Bottom surfaces and side surfaces of culture dishes with an inner diameter of 5.3 cm were coated with 400 μL of the drug solutions, and when the acetone was volatilized, films of the compounds of the present disclosure were prepared on inner walls of the culture dishes. The inner walls of the culture dishes used were 40 cm^2, and a dose of the treatment drugs was 1 μg/cm^2. 10 adult Ctenocephalides felis (males and females were mixed) were placed in the culture dishes, and the culture dishes were covered and then stored in a constant-temperature room at 25° C. The number of dead insects was checked after 72 h, and the insect mortality was calculated. The test was repeated for 3 times. Test results: The insect mortality of compounds 1, 2, 3, 4, 5, 11, 12, 18, 32, 33, 34, 46, 60, 74, 88, 99, 101, 102, 104, 105, 108, 109, 110, 111, 113 and 114 is 70% or above.

The next assay concerns Tetranychus cinnabarinus. Briefly: Greenhouse acaricidal activity on adult acarids of Tetranychus cinnabarinus (spraying of Phaseolus vulgaris seedlings). Particulars: dose 1.25 mg/L, after 72 h, read-out: mortality against adult acarids of Tetranychus cinnabarinus. How it is done:
According to the solubility of the compounds to be tested, the compounds to be tested were dissolved in acetone or dimethyl sulfoxide and prepared into 50 mL of solutions to be tested at desired concentrations with a 0.1% Tween 80 solution, where the content of the acetone or dimethyl sulfoxide in the solutions was not higher than 10%.
Two true leaves of Phaseolus vulgaris seedlings were taken, and 30-40 adult acarids of Tetranychus cinnabarinus were inoculated. After the cardinal number was investigated, the whole plants were subjected to spraying treatment with a hand-held sprayer, each treatment was repeated for 3 times, and the plants were placed in a standard observation room after the treatment. The number of surviving acarids was investigated after 72 h, and the mortality was calculated.

Another assay deals with Plutella xylostella. Briefly: Activity determination of killing Plutella xylostella (Airbrush spray, cabbage leaf discs). The following applies: foliar, 3rd day after administration; for mortality at 0.3125 µg/mL: 0.3125 mg/L, read-out: Mortality (%, on 3rd day after administration) 0.3125 mg/L; for mortality at 0.625 µg/mL: 0.625 mg/L, read-out: Mortality (%, on 3rd day after administration) 0.625 mg/L. As for the experimental part: (§1) The compounds to be tested were dissolved in a mixed solvent of acetone/methanol (1:1) and then diluted to desired concentrations with water containing 0.1% (wt) Tween 80.
(§2) With Mythimna separata and Plutella xylostella as targets, the activity was determined by Airbrush spray method.
Determination method: Cabbage leaves were punched into leaf discs with the diameter of 2 cm by a puncher, the pressure of Airbrush spray treatment is 10 psi (about 0.7 kg/cm^2), and the compounds to be tested were sprayed onto the front and back surfaces of each leaf disc at a liquid amount of 0.5 mL. After drying in the shade, 10 3rd instar larvae were inoculated to each treatment, and each treatment was repeated for 3 times. After the treatment, the larvae were placed in an observation room for culture at 25° C. with relative humidity of 60-70%. On 3rd day after administration, the number of surviving larvae was investigated, and the mortality was calculated.
Some compounds of the present disclosure and control compounds were selected to carry out parallel comparative experiments of the insecticidal activity against Plutella xylostella (on 3rd day after administration), and the determination method was the same as above.

The next assay concerns Dermacentor variabilis. The assay can be described thus: Insecticidal test on Dermacentor variabilis (compound film in culture dish). The following applies: 1 μg/cm^2, 1st nymphs, after 24 h, 25° C., read-out: insect mortality (Dermacentor variabilis). As for the experimental part:
4 mg of compounds to be tested were dissolved in 40 mL of acetone to obtain acetone solutions with a concentration of 100 mg/L. Bottom surfaces and side surfaces of 2 culture dishes with an inner diameter of 5.3 cm were coated with 400 μL of the drug solutions, and when the acetone was volatilized, films of the compounds of the present disclosure were prepared on inner walls of the culture dishes. The inner walls of the culture dishes used were 40 cm^2, and a dose of the treatment drugs was 1 μg/cm^2. 10 1st nymphs of Dermacentor variabilis (males and females were mixed) were placed in the culture dishes. The 2 culture dishes were combined, sealed with tape at a junction portion to prevent escape of the nymphs, and then stored in a constant-temperature room at 25° C. The number of dead insects was checked after 24 h, and the insect mortality was calculated. The test was repeated for 3 times. Test results: The insect mortality of compounds 1, 2, 3, 4, 5, 11, 12, 18, 32, 33, 34, 46, 60, 74, 88, 99, 101, 102, 104, 105, 108, 109, 110, 111, 113 and 114 is 70% or above.

The test system of another assay is Mythimna separata. Briefly: Activity determination of killing Mythimna separata (Airbrush spray, corn leaf segments). The following applies: foliar, dose 1.25 mg/L, 3rd instar larvae, 3rd day after administration, read-out: mortality against Mythimna separata. As for the experimental part:
as §1, §2
Determination method: Corn leaves were cut into leaf segments with the length of 2 cm, the pressure of Airbrush spray treatment is 10 psi (about 0.7 kg/cm^2), and the compounds to be tested were sprayed onto the front and back surfaces of each leaf segment at a liquid amount of 0.5 mL. After drying in the shade, 10 3rd instar larvae were inoculated to each treatment, and each treatment was repeated for 3 times. After the treatment, the larvae were placed in an observation room for culture at 25° C. with relative humidity of 60-70%. On the 3rd day after administration, the number of surviving larvae was investigated, and the mortality was calculated.

The mark [1] stands for this setting: dose 1.25 mg/L, 3rd instar larvae, read-out: mortality against Plutella xylostella.
[2] abbreviates: parallel comparative experiment.
The mark [3] stands for this setting: 1.25 mg/L, parallel comparative experiment, read-out: Mortality (%, on 3rd day after administration) 1.25 mg/L.

Where two headings read alike, the source gives them in different places.

As to `N#CCCN(C(=O)c1cc(-c2cnn(-c3c(Cl)cc(C(F)(C(F)(F)F)C(F)(F)F)cc3Br)c2)cnc1Cl)C1CC1` [Compound 33], the mortality at 1 µg/cm2 in the assay with Ctenocephalides felis and in the assay on Dermacentor variabilis was ≥ 70% in each case. The mortality at 1.25 µg/mL with Tetranychus cinnabarinus, in the assay on Plutella xylostella (setting [1]) and with Mythimna separata was ≥ 90% in each case.

Regarding `N#CCN(C(=O)c1cc(-c2cnn(-c3c(Br)cc(C(F)(C(F)(F)F)C(F)(F)F)cc3OC(F)(F)F)c2)cnc1Cl)C1CC1` [Compound 74], the mortality at 1 µg/cm2 in the assay on Ctenocephalides felis and in the assay with Dermacentor variabilis was ≥ 70% each time. The mortality at 1.25 µg/mL with Tetranychus cinnabarinus, with Plutella xylostella (setting [1]) and with Mythimna separata was ≥ 90% in each case.

Regarding `N#CCCN(C(=O)c1cc(-c2cnn(-c3c(Cl)cc(C(F)(C(F)(F)F)C(F)(F)F)cc3Cl)c2)cnc1Cl)C1CC1` [Compound 5], the mortality at 1 µg/cm2 with Ctenocephalides felis and with Dermacentor variabilis was ≥ 70% in each case. The mortality at 1.25 µg/mL with Tetranychus cinnabarinus is ≥ 90%; with Plutella xylostella (setting [3]), 100%; in the assay on Plutella xylostella (setting [1]), ≥ 90%; in the assay with Mythimna separata it was ≥ 90%. Moreover, in the assay on Plutella xylostella (setting [2]), the mortality at 0.3125 µg/mL came to 100%. Besides, in the assay on Plutella xylostella (setting [2]), the mortality at 0.625 µg/mL is 100%.

In the case of `CC(C)C(=O)N(C(=O)c1cc(-c2cnn(-c3c(Cl)cc(C(F)(C(F)(F)F)C(F)(F)F)cc3Cl)c2)cnc1Cl)C1(C#N)CC1` [Compound 111], the mortality at 1 µg/cm2 with Ctenocephalides felis and in the assay with Dermacentor variabilis was ≥ 70% each time. Also, the mortality at 1.25 µg/mL in the assay on Tetranychus cinnabarinus, in the assay on Plutella xylostella (setting [1]) and with Mythimna separata was ≥ 90% in each case.

Take `N#CCN(C(=O)c1cc(-c2cnn(-c3c(Cl)cc(C(F)(C(F)(F)F)C(F)(F)F)cc3C(F)(F)F)c2)cnc1Cl)C1CC1` [Compound 60]: the mortality at 1 µg/cm2 in the assay on Ctenocephalides felis and with Dermacentor variabilis was ≥ 70% in each case. Moreover, the mortality at 1.25 µg/mL in the assay with Tetranychus cinnabarinus, in the assay with Plutella xylostella (setting [1]) and in the assay with Mythimna separata was ≥ 90% each time.

As for `O=C(c1cc(-c2cnn(-c3c(Cl)cc(C(F)(C(F)(F)F)C(F)(F)F)cc3Cl)c2)cnc1Cl)N(CC1CC1)C1CC1` [Compound 3], the mortality at 1 µg/cm2 with Ctenocephalides felis and in the assay with Dermacentor variabilis was ≥ 70% in each case. The mortality at 1.25 µg/mL in the assay on Tetranychus cinnabarinus was ≥ 90%; in the assay with Plutella xylostella (setting [3]), 100%; with Plutella xylostella (setting [1]) it was ≥ 90%; in the assay on Mythimna separata it was ≥ 90%. For the same compound, in the assay on Plutella xylostella (setting [2]), the mortality at 0.3125 µg/mL amounted to 76.7%. For the same compound, the mortality at 0.625 µg/mL in the assay with Plutella xylostella (setting [2]) was 100%.

As for `C=CCN(C(=O)c1cc(-c2cnn(-c3c(Cl)cc(C(F)(C(F)(F)F)C(F)(F)F)cc3Cl)c2)cnc1Cl)C1CC1` [Compound 1], the mortality at 1 µg/cm2 in the assay with Ctenocephalides felis and in the assay on Dermacentor variabilis was ≥ 70% in each case. In addition, the mortality at 1.25 µg/mL was ≥ 90% in the assay on Tetranychus cinnabarinus, 100% in the assay with Plutella xylostella (setting [3]), ≥ 90% in the assay on Plutella xylostella (setting [1]) and ≥ 90% in the assay with Mythimna separata. Besides, the mortality at 0.3125 µg/mL in the assay with Plutella xylostella (setting [2]) amounted to 93.3%. In the assay with Plutella xylostella (setting [2]), the mortality at 0.625 µg/mL was determined as 100%.

As to `N#CCN(C(=O)c1cc(-c2cnn(-c3c(Br)cc(C(F)(C(F)(F)F)C(F)(F)F)cc3Br)c2)cnc1Cl)C1CC1` [Compound 18], the mortality at 1 µg/cm2 with Ctenocephalides felis and in the assay on Dermacentor variabilis was ≥ 70% each time. Further, the mortality at 1.25 µg/mL in the assay on Tetranychus cinnabarinus, with Plutella xylostella (setting [1]) and in the assay with Mythimna separata was ≥ 90% in each case.

On to `CCC(=O)N(C(=O)c1cc(-c2cnn(-c3c(Cl)cc(C(F)(C(F)(F)F)C(F)(F)F)cc3Cl)c2)cnc1Cl)C1(C#N)CC1` [Compound 109], for which the mortality at 1 µg/cm2 with Ctenocephalides felis and with Dermacentor variabilis was ≥ 70% throughout. For the same compound, the mortality at 1.25 µg/mL in the assay with Tetranychus cinnabarinus, in the assay on Plutella xylostella (setting [1]) and in the assay on Mythimna separata was ≥ 90% throughout.

`CCCC(=O)N(C(=O)c1cc(-c2cnn(-c3c(Cl)cc(C(F)(C(F)(F)F)C(F)(F)F)cc3Cl)c2)cnc1Cl)C1CC1` [Compound 101]: the mortality at 1 µg/cm2 in the assay with Ctenocephalides felis and with Dermacentor variabilis was ≥ 70% throughout. The mortality at 1.25 µg/mL in the assay on Tetranychus cinnabarinus, with Plutella xylostella (setting [1]) and in the assay with Mythimna separata was ≥ 90% each time.

In the case of `N#CCN(C(=O)c1cc(-c2cnn(-c3c(Cl)cc(C(F)(C(F)(F)F)C(F)(F)F)cc3Cl)c2)cnc1Cl)C1(C#N)CC1` [Compound 11], the mortality at 1 µg/cm2 in the assay on Ctenocephalides felis and in the assay with Dermacentor variabilis was ≥ 70% each time. In addition, the mortality at 1.25 µg/mL in the assay on Tetranychus cinnabarinus was ≥ 90%; in the assay on Plutella xylostella (setting [3]), 100%; in the assay with Plutella xylostella (setting [1]), ≥ 90%; with Mythimna separata, ≥ 90%. Further, the mortality at 0.3125 µg/mL in the assay on Plutella xylostella (setting [2]) was found to be 100%. Moreover, the mortality at 0.625 µg/mL in the assay on Plutella xylostella (setting [2]) amounted to 100%.

Take `COCC(=O)N(C(=O)c1cc(-c2cnn(-c3c(Cl)cc(C(F)(C(F)(F)F)C(F)(F)F)cc3Cl)c2)cnc1Cl)C1CC1` [Compound 105]: the mortality at 1 µg/cm2 in the assay on Ctenocephalides felis and in the assay with Dermacentor variabilis was ≥ 70% throughout. Further, the mortality at 1.25 µg/mL was ≥ 90% in the assay with Tetranychus cinnabarinus, 100% in the assay on Plutella xylostella (setting [3]), ≥ 90% in the assay on Plutella xylostella (setting [1]) and ≥ 90% in the assay with Mythimna separata. Moreover, the mortality at 0.3125 µg/mL in the assay with Plutella xylostella (setting [2]) came to 100%. In the assay on Plutella xylostella (setting [2]), the mortality at 0.625 µg/mL was 100%.

`C#CCN(C(=O)c1cc(-c2cnn(-c3c(Cl)cc(C(F)(C(F)(F)F)C(F)(F)F)cc3Cl)c2)cnc1Cl)C1CC1` [Compound 2]: the mortality at 1 µg/cm2 in the assay with Ctenocephalides felis and in the assay on Dermacentor variabilis was ≥ 70% in each case. For the same compound, the mortality at 1.25 µg/mL in the assay with Tetranychus cinnabarinus is ≥ 90%; with Plutella xylostella (setting [3]) it was 100%; with Plutella xylostella (setting [1]), ≥ 90%; in the assay on Mythimna separata it was ≥ 90%. For the same compound, the mortality at 0.3125 µg/mL in the assay on Plutella xylostella (setting [2]) was determined as 90%. Also, in the assay on Plutella xylostella (setting [2]), the mortality at 0.625 µg/mL was determined as 100%.

Turning to `COCC(=O)N(C(=O)c1cc(-c2cnn(-c3c(Cl)cc(C(F)(C(F)(F)F)C(F)(F)F)cc3Cl)c2)cnc1Cl)C1(C#N)CC1` [Compound 114], the mortality at 1 µg/cm2 in the assay with Ctenocephalides felis and with Dermacentor variabilis was ≥ 70% each time. In addition, the mortality at 1.25 µg/mL was ≥ 90% in the assay on Tetranychus cinnabarinus, 100% with Plutella xylostella (setting [3]), ≥ 90% in the assay with Plutella xylostella (setting [1]) and ≥ 90% in the assay with Mythimna separata. Further, the mortality at 0.3125 µg/mL in the assay on Plutella xylostella (setting [2]) was 100%. Besides, the mortality at 0.625 µg/mL in the assay with Plutella xylostella (setting [2]) is 100%.
